Source: patent publication US20150065466A1, “NOVEL DXR INHIBITORS FOR ANTIMICROBIAL THERAPY” (priority 2012, published 2015)
Like-named read-outs stand apart in the source and are kept apart here.

Assays:
[1] = test system: P. falciparum Dd2 strain; assay: P. falciparum proliferation, DAPI fluorescence assay, Dd2 strain; type: cell-based; conditions: read-out: IC50 against P. falciparum proliferation, Dd2 strain
[2] = test system: P. falciparum 3D7 strain; assay: P. falciparum proliferation, DAPI fluorescence assay, 3D7 strain; type: cell-based; conditions: read-out: IC50 against P. falciparum proliferation, 3D7 strain
[3] = target: T1, PfDXR (Plasmodium falciparum, UniProt Q8IKG4); conditions: Table 2, data from literature (footnote a); cited from earlier work
T1 sequence (Q8IKG4 75-488): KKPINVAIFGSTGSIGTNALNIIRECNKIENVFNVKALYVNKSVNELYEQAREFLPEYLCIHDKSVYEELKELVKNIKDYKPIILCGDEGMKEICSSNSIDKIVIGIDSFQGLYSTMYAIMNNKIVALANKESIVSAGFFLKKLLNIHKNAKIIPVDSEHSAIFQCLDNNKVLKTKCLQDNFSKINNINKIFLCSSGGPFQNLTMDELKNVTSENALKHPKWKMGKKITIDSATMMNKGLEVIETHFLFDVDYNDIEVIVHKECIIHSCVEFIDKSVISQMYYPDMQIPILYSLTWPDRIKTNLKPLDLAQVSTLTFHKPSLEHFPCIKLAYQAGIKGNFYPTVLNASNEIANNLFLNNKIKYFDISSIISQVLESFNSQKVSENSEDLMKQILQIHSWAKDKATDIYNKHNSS

[4] = target: T2, EcDXR (Escherichia coli, UniProt P45568); conditions: cited from earlier work
T2 sequence (P45568 whole entry): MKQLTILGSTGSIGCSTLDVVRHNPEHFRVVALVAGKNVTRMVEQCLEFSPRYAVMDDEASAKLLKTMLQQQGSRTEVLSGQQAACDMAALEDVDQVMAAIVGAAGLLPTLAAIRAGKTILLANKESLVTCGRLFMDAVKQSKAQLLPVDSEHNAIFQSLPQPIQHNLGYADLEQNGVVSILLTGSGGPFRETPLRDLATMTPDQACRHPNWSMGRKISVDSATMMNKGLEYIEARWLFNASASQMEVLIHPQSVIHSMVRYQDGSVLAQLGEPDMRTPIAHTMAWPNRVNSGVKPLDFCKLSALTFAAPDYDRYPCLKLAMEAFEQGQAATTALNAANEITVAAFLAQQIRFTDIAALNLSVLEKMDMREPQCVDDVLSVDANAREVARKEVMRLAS

[5] = target: TgDXR (Toxoplasma gondii, UniProt S8ESX0); type: biochemical, T. gondii
TgDXR, sequence (S8ESX0 entry or part of it): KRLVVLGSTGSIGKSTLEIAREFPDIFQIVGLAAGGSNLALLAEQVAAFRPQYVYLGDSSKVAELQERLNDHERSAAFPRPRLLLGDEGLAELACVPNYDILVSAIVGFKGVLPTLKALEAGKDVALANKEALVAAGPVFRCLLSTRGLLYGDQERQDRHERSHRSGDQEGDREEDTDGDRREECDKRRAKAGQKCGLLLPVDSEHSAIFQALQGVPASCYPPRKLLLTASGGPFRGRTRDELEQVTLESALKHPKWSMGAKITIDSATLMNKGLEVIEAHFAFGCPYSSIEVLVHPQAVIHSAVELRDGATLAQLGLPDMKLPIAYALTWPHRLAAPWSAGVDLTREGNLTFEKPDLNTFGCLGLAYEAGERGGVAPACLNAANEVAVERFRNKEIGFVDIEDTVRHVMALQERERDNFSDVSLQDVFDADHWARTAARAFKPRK

[6] = test system: Hela; assay: cytotoxicity, MTS assay, Hela; type: cell-based, human; conditions: at 300 μM, 48 h
[7] = test system: WI-38 (fibroblast); assay: cytotoxicity, MTS assay, WI-38; type: cell-based, human; conditions: at 300 μM, 48 h
Experimental: PfDXR inhibitors SYC-466, -467, -408, -409 were tested against three non-cancerous human cell lines, i.e., WI-38 (fibroblast), HEK293 (kidney) and Beas2B (lung epithelial), to evaluate the potential toxicity of these compounds, using an assay routinely perform (41). 1×10^5 cells are inoculated into each well of a 96-well plate and cultured in Dulbecco's Modified Eagle's Medium (DMEM) supplemented with 10% fetal bovine serum at 37° C. in a 5% CO2 atmosphere with 100% humidity overnight for cell attachment. After addition of compounds (from 0.1-300 μM), plates are incubated for 48 h after which cell viability are assessed by the [3-(4,5-dimethylthiazol-2-yl)-5-(3-carboxymethoxyphenyl)-2-(4-sulfophenyl)-2H-tetrazolium, inner salt (MTS) assay, using a commercially available kit (Promega). IC50s of each compound can be calculated from dose response curves.

[8] = test system: A549; assay: cytotoxicity, MTS assay, A549; type: cell-based, human; conditions: at 300 μM, 48 h
[9] = target: T1, PfDXR; assay: recombinant PfDXR enzyme inhibition; type: biochemical, P. falciparum
[10] = target: T2, EcDXR; assay: recombinant EcDXR enzyme inhibition; type: biochemical, E. coli
[11] = cited from earlier work; for half life in plasma: human plasma, patients; for oral availability: human, in vivo
[12] = test system: T. gondii; conditions: study from the Moreno group; cited from earlier work
[13] = test system: T. gondii engineered to express the bacterial GlpT; conditions: Nair et al., 2011; cited from earlier work
[14] = test system: P. aeruginosa isolates; conditions: Neu and Kamimura, 1981; cited from earlier work
[15] = 100 nM TgDXR, 4 mM MgCl2, 100 μM DXP, pH 7.6, read-out: Ki TgDXR
[16] = Dd2 (multidrug resistant), erythrocyte stage, 3 days
[17] = 3D7 (chloroquine sensitive), erythrocyte stage, 3 days
[18] = read-out: Ki against recombinant EcDXR
[19] = Plasmodium falciparum, DD2, Erythrocyte, 72 h
[20] = Plasmodium falciparum, 3D7, Erythrocyte, 72 h
[21] = Table 1, read-out: Enzyme Ki PfDXR

Q: Which IC50 ([1]; Plasmodium falciparum, 72 h, Dd2 (multidrug resistant), erythrocyte stage, 3 days) does the source give for `CCN(CC)CCCC(C)Nc1ccnc2cc(Cl)ccc12` (stereo not drawn) [chloroquinone, reference compound] here?
A: Its IC50 is 111 nM.

Q: And the IC50 ([2]; Plasmodium falciparum, 72 h, 3D7 (chloroquine sensitive), erythrocyte stage, 3 days)?
A: The IC50 was 28 nM.

Q: For `CC(=O)N(O)CCCP(=O)(O)O` [FR900098], which Ki [3] is on record?
A: The Ki was 11 nM.

Q: And the Ki ([4]; Table 2, data from literature (footnote a))?
A: Its Ki is 19 nM.

Q: What about the Ki [5, 15] of the same compound?
A: The Ki was 48 nM.

Q: What about the Ki ([5]; read-out: Ki against TgDXR) of the same compound?
A: Its Ki is 48 nM.

Q: For `CC(=O)N(O)CCC(c1cccnc1)P(=O)(O)O` (stereo not drawn) [SYC-408], which “cytotoxicity against growth of Hela cells” value (“cytotoxicity … of Hela cells” below) [6] is on record?
A: The value was “essentially no cytotoxicity”.

Q: And the “cytotoxicity against growth of WI-38 cells” value (from here on “cytotoxicity … of WI-38 cells”) [7]?
A: Its value is “essentially no cytotoxicity”.

Q: What about the “cytotoxicity against growth of A549 cells” value (“cytotoxicity … of A549 cells” below) [8] of the same compound?
A: Its value is “essentially no cytotoxicity”.

Q: And the IC50 [1, 16]?
A: Its IC50 is 310 nM.

Q: What about the Ki [4] of the same compound?
A: Its Ki is 42 nM.

Q: And the IC50 [2, 17]?
A: Its IC50 is 440 nM.

Q: And the Ki ([9]; listed as 5a, read-out: Ki against PfDXR)?
A: The Ki was 1.9 nM.

Q: And the “fold more active than fosmidomycin against PfDXR” value ([9]; ratio of Ki values)?
A: The value was about 10 fold.

Q: And the Ki [5, 15]?
A: The Ki was 970 nM.

Q: And the Ki [10, 18]?
A: Its Ki is 42 nM.

Q: For `O=CN(O)CCCP(=O)(O)O` [Fosmidomycin], which “half life in plasma” value [11] is on record?
A: The value was 30 to 90 min.

Q: And the “half life in plasma” value ([11]; listed as 1)?
A: The value was about 60 min.

Q: What about the oral availability [11] of the same compound?
A: Its oral availability is “low”.

Q: And the oral availability ([11]; listed as 1)?
A: The oral availability was “poor”.

Q: And the “activity on T. gondii parasite” value [12]?
A: The value was “no activity”.

Q: And the “killing of T. gondii expressing GlpT” value [13]?
A: The value was “can effectively kill”.

Q: What about the IC50 [1, 19] of the same compound?
A: The IC50 was 440 nM.

Q: What about the “MIC50 (inhibits 50% of P. aeruginosa isolates)” value [14] of the same compound?
A: Its value is 6.25 µg/mL.

Q: And the IC50 [2, 20]?
A: The IC50 was 1170 nM.

Q: What about the Ki ([5]; read-out: Ki against TgDXR) of the same compound?
A: Its Ki is 90 nM.

Q: With `O=P(O)(O)Cc1ccccn1` [Compound 3] as the compound, how does the Ki [3] read?
A: The Ki was 3300 nM.

Q: And the Ki [4]?
A: Its Ki is 2300 nM.

Q: What about the “Ki against TgDXR, in words” value [5] of the same compound?
A: The value was “low μM range”.

Q: What about the Ki [5, 15] of the same compound?
A: The Ki was 4100 nM.

Q: What does the source list for `O=CN(O)CCC(c1ccncc1)P(=O)(O)O` (stereo not drawn) [SYC-467]?
A: cytotoxicity against growth of Hela cells [6]: essentially no cytotoxicity; cytotoxicity against growth of WI-38 cells [7]: essentially no cytotoxicity; cytotoxicity against growth of A549 cells [8]: essentially no cytotoxicity; IC50 [1, 16]: 170 nM; Ki [4]: 35 nM; IC50 [2, 17]: 180 nM; Ki [9, 21]: 8.9 nM; Ki [5, 15]: 79 nM; Ki ([5]; read-out: Ki against TgDXR): 79 nM; Ki [10, 18]: 35 nM

Q: For `O=CN(O)CCC(c1cccnc1)P(=O)(O)O` (stereo not drawn) [SYC-466], which “cytotoxicity … of Hela cells” value [6] is on record?
A: Its value is “essentially no cytotoxicity”.

Q: What about the Ki [3] of the same compound?
A: The Ki was 13 nM.

Q: And the “cytotoxicity … of WI-38 cells” value [7]?
A: Its value is “essentially no cytotoxicity”.

Q: And the “cytotoxicity … of A549 cells” value [8]?
A: The value was “essentially no cytotoxicity”.

Q: What about the IC50 [1, 19] of the same compound?
A: Its IC50 is 180 nM.

Q: And the IC50 [2, 20]?
A: The IC50 was 340 nM.

Q: What about the Ki [9] of the same compound?
A: The Ki was 13 nM.

Q: What about the Ki ([5]; read-out: Ki against TgDXR) of the same compound?
A: The Ki was 55 nM.

Q: And the Ki ([10]; Table 1, read-out: Enzyme Ki EcDXR)?
A: The Ki was 87 nM.

Q: Which “MIC50 (inhibits 50% of P. aeruginosa isolates)” value [14] does the source give for gentamicin here?
A: Its value is 12.5 µg/mL.

Q: Which Ki [3] does the source give for `CC(=O)N(O)CCC(c1ccc(Cl)c(Cl)c1)P(=O)(O)O` (stereo not drawn) [Compound 11] here?
A: The Ki was 25 nM.

Q: And the Ki [4]?
A: Its Ki is 36 nM.

Q: And the Ki [5, 15]?
A: Its Ki is 220 nM.

Q: Which “cytotoxicity … of Hela cells” value [6] does the source give for `CC(=O)N(O)CCC(c1ccncc1)P(=O)(O)O` (stereo not drawn) [SYC-409] here?
A: Its value is “essentially no cytotoxicity”.

Q: And the “cytotoxicity … of WI-38 cells” value [7]?
A: The value was “essentially no cytotoxicity”.

Q: And the “cytotoxicity … of A549 cells” value [8]?
A: The value was “essentially no cytotoxicity”.

Q: And the IC50 [1, 16]?
A: The IC50 was 460 nM.

Q: What about the Ki [4] of the same compound?
A: Its Ki is 82 nM.

Q: What about the IC50 [2, 17] of the same compound?
A: Its IC50 is 630 nM.

Q: What about the Ki [9, 21] of the same compound?
A: Its Ki is 13 nM.

Q: And the Ki [5, 15]?
A: Its Ki is 530 nM.

Q: What about the Ki [10, 18] of the same compound?
A: Its Ki is 82 nM.

Q: For `O=CN(O)CCC(c1ccc(Cl)c(Cl)c1)P(=O)(O)O` (stereo not drawn) [Compound 10], which Ki [3] is on record?
A: Its Ki is 15 nM.

Q: And the Ki [4]?
A: The Ki was 58 nM.

Q: What about the Ki [5, 15] of the same compound?
A: Its Ki is 77 nM.

Q: What about the Ki ([5]; read-out: Ki against TgDXR) of the same compound?
A: Its Ki is 77 nM.
